Assay results published in patent US20080015146A1, “Dpp-IV Inhibitors” (SANTHERA PHARMACEUTICALS (DEUTSCHLAND) AG, priority 2004, published 2008).
Where a name gives a salt, the structure may show the parent alone.

Molecular target: T1, DPP-IV (Homo sapiens, UniProt P27487)
T1 construct: Soluble human DPP-IV lacking the transmembrane anchor (Gly31-Pro766); Pre-Pro-alpha-mating factor secretion leader (N, cleaved yes); made in house
Assay: Continuous fluorimetric assay of inhibition of DPP-IV peptidase activity (cleavage of Gly-Pro-AMC)
Type: biochemical
Settings: substrate Gly-Pro-AMC 16 μM, pH 7.4, 25° C., 1% DMSO; assays carried out with human and porcine DPP-IV (comparable activities)
Method: Inhibition of DPP-IV peptidase activity was monitored with a continuous fluorimetric assay. This assay is based on the cleavage of the substrate Gly-Pro-AMC (Bachem) by DPP-IV, releasing free AMC. The assay is carried out in 96-well microtiterplates. In a total volume of 100 μl compounds are preincubated with […] DPP-IV employing a buffer containing 10 mM Hepes, 150 mM NaCl, 0.005% Tween 20 (pH 7.4). […] The final concentration of DMSO is 1%. The inhibitory potential of the compounds were determined.
Soluble human DPP-IV lacking the transmembrane anchor (Gly31-Pro766) was expressed in a recombinant YEAST-strain as Pre-Pro-alpha-mating fusion. The secreted product (rhuDPP-IV-Gly31-Pro766) was purified from fermentation broth (>90% purity).

T1 sequence (P27487 31-766): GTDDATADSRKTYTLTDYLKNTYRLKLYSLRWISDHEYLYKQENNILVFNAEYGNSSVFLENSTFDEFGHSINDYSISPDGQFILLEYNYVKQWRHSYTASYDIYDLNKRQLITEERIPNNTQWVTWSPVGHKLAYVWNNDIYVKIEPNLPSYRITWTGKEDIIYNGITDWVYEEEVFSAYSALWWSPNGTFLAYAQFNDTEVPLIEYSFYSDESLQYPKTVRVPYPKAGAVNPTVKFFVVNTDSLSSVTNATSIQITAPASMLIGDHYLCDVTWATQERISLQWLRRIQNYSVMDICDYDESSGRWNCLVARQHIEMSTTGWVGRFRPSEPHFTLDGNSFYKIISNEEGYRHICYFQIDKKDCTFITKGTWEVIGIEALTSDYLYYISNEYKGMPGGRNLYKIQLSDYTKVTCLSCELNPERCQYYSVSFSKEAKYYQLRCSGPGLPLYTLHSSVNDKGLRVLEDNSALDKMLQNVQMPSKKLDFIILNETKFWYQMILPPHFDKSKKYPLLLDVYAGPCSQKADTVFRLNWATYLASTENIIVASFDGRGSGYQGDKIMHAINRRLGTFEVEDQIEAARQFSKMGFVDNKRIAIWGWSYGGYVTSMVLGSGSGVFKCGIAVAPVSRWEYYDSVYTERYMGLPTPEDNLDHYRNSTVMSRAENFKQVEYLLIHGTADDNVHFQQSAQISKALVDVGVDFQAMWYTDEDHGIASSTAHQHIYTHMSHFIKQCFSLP

SMILES	IC50 [nM]
CS(=O)(=O)c1ccc(-c2noc([C@@H]3CCCN3C(=O)C[C@H](N)Cc3ccccc3F)n2)cc1 [Example 4, (R)-3-Amino-4-(2-fluoro-phenyl)-1-{(S)-2-[3-(4-methanesulphonyl-phenyl)[1,2,4]oxadiazol-5-yl]-pyrrolidin-1-yl}-butan-1-one hydrochloride]	< 100
N[C@@H](CC(=O)N1CCC[C@H]1c1nc(-c2ccccn2)no1)Cc1ccccc1F [Example 5, (R)-3-Amino-4-(2-fluoro-phenyl)-1-[(S)-2-(3-pyridin-2-yl-[1,2,4]oxadiazol-5-yl)-pyrrolidin-1-yl]-butan-1-one]	< 100
N[C@@H](CC(=O)N1CCC[C@H]1c1nc(-c2cc(F)cc(F)c2)no1)Cc1ccccc1F [Example 7, (R)-3-Amino-1-{(S)-2-[3-(3,5-difluoro-phenyl)-[1,2,4]oxadiazol-5-yl)-pyrrolidin-1-yl}-4-(2-fluoro-phenyl)-butan-1-one trifluoracetic acid salt]	< 100
N[C@@H](CC(=O)N1CCC[C@@H]1c1nc(-c2cccc(Cl)c2)no1)Cc1ccccc1F [Example 29, (R)-3-Amino-1-{(R)-2-[3-(3-chloro-phenyl) [1,2,4]oxadiazol-5-yl)-pyrrolidin-1-yl}-4-(2-fluoro-phenyl)-butan-1-one hydrochloride]	101 to 1000
N[C@@H](CC(=O)N1CCC[C@@H]1c1nc(-c2cccc(F)c2)no1)Cc1ccccc1F [Example 30, (R)-3-Amino-1-{(R)-2-[3-(3-fluoro-phenyl) [1,2,4]oxadiazol-5-yl)-pyrrolidin-1-yl}-4-(2-fluoro-phenyl)-butan-1-one hydrochloride]	101 to 1000
CS(=O)(=O)c1ccc(-c2noc([C@H]3CCCN3C(=O)C[C@H](N)Cc3ccccc3F)n2)cc1 [Example 31, (R)-3-Amino-4-(2-fluoro-phenyl)-1-{(R)-2-[3-(4-methanesulphonyl-phenyl) [1,2,4]oxadiazol-5-yl]-pyrrolidin-1-yl}-butan-1-one hydrochloride]	< 100
N[C@@H](CC(=O)N1CCC[C@@H]1c1nc(-c2ccccn2)no1)Cc1ccccc1F [Example 32, (R)-3-Amino-4-(2-fluoro-phenyl)-1-[(R)-2-(3-pyridin-2-yl-[1,2,4]oxadiazol-5-yl)pyrrolidin-1-yl]-butan-1-one hydrochloride]	101 to 1000
N[C@@H](CC(=O)N1CCC[C@H]1c1noc(-c2ccc(F)cn2)n1)Cc1cc(F)c(F)cc1F [Example 36, (R)-3-Amino-1-{(S)-2-[5-(5-fluoro-pyridin-2-yl)-[1,2,4]oxadiazol-3-yl]-pyrrolidin-1-yl}-4-(2,4,5-trifluoro-phenyl)-butan-1-one formate salt]	< 100
N[C@@H](CC(=O)N1CCC[C@H]1c1nc2cc(Cl)ccc2[nH]1)Cc1ccccc1F [Example 40, (R)-3-Amino-1-[(S)-2-(5-chloro-1H-benzoimidazol-2-yl)-pyrrolidin-1-yl]-4-(2-fluorophenyl)-butan-1-one trifluoroacetic acid salt]	< 100
N[C@@H](CC(=O)N1CCC[C@H]1c1cn(-c2ccccc2)nn1)Cc1ccccc1F [Example 42, formate salt]	101 to 1000
N[C@@H](CC(=O)N1CCC[C@H]1c1ncn(-c2ccccc2)n1)Cc1ccccc1F [Example 43, formate salt]	< 100
N[C@@H](CC(=O)N1CCC[C@H]1c1ccn(-c2ccccc2)n1)Cc1ccccc1F [Example 47, formate salt]	101 to 1000
N[C@@H](CC(=O)N1CC(N2CCC(C(F)(F)F)CC2)C1)Cc1ccccc1F [Example 50, (3R)-3-Amino-4-(2-fluoro-phenyl)-1-[3-(4-trifluoromethyl-piperidin-1-yl)-azetidin-1-yl]-butan-1-one]	1000 to 2000
N[C@@H](CC(=O)N1CC(N2CCN(c3ccccn3)CC2)C1)Cc1ccccc1F [Example 51, (3R)-3-Amino-4-(2-fluoro-phenyl)-1-[3-(4-pyridin-2-yl-piperazin-1-yl)-azetidin-1-yl]-butan-1-one]	1000 to 2000

Next, values leading:

IC50 [nM]	SMILES
< 100	N[C@@H](CC(=O)N1CCC[C@H]1c1nc(-c2ccccc2)no1)Cc1ccccc1F [Example 1, (R)-3-Amino-4-(2-fluoro-phenyl)-1-[(S)-2-(3-phenyl-[1,2,4]oxadiazol-5-yl)-pyrrolidin-1-yl]-butan-1-one hydrochloride]
< 100	N[C@@H](CC(=O)N1CCC[C@H]1c1nc(-c2cccc(Cl)c2)no1)Cc1ccccc1F [Example 2, (R)-3-Amino-1-{(S)-2-[3-(3-chloro-phenyl)[1,2,4]oxadiazol-5-yl)-pyrrolidin-1-yl}-4-(2-fluoro-phenyl)-butan-1-one hydrochloride]
< 100	N[C@@H](CC(=O)N1CCC[C@H]1c1nc(-c2cccc(F)c2)no1)Cc1ccccc1F [Example 3, (R)-3-Amino-1-{(S)-2-[3-(3-fluoro-phenyl) [1,2,4]oxadiazol-5-yl)-pyrrolidin-1-yl}-4-(2-fluoro-phenyl)-butan-1-one hydrochloride]
< 100	N[C@@H](CC(=O)N1CCC[C@H]1c1nc(-c2cccc(F)c2)no1)Cc1cccc(Cl)c1 [Example 6, (R)-3-Amino-4-(3-chloro-phenyl)-1-{(S)-2-[3-(3-fluoro-phenyl)-[1,2,4]oxadiazol-5-yl]-pyrrolidin-1-yl}-butan-1-one trifluoroacetic acid salt]
< 100	N[C@@H](CC(=O)N1CCC[C@H]1c1nc(-c2ccc(F)cc2F)no1)Cc1ccccc1F [Example 8, (R)-3-Amino-1-{(S)-2-[3-(2,4-difluoro-phenyl)-[1,2,4]oxadiazol-5-yl)-pyrrolidin-1-yl}-4-(2-fluoro-phenyl)-butan-1-one trifluoracetic acid salt]
< 100	CS(=O)(=O)c1cccc(-c2noc([C@@H]3CCCN3C(=O)C[C@H](N)Cc3ccccc3F)n2)c1 [Example 9, (R)-3-Amino-1-{(S)-2-[3-(3-methanesulphonyl-phenyl)-[1,2,4]oxadiazol-5-yl)-pyrrolidin-1-yl}-4-(2-fluoro-phenyl)-butan-1-one trifluoracetic acid salt]
< 100	CS(=O)(=O)Nc1ccc(-c2noc([C@@H]3CCCN3C(=O)C[C@H](N)Cc3ccccc3F)n2)cc1 [Example 10, N-[4-(5-{(S)-1-[(R)-3-Amino-4-(2-fluoro-phenyl)-butyryl]-pyrrolidin-2-yl}-[1,2,4]oxadiazol-3-yl)-phenyl]-methanesulphonamide trifluoroacetic acid salt]
< 100	N[C@@H](CC(=O)N1CCC[C@H]1c1nc(C2CC2)no1)Cc1ccccc1F [Example 11, (R)-3-Amino-1-[(S)-2-(3-cyclopropyl-[1,2,4]oxadiazol-5-yl)-pyrrolidin-1-yl]-4-(2-fluorophenyl)-butan-1-one trifluoracetic acid salt]
< 100	N[C@@H](CC(=O)N1CCC[C@H]1c1nc(C2CCC2)no1)Cc1cc(F)c(F)cc1F [Example 15, (R)-3-Amino-1-[(S)-2-(3-cyclobutyl-[1,2,4]oxadiazol-5-yl)-pyrrolidin-1-yl]-4-(2,4,5-trifluoro-phenyl)-butan-1-one formate salt]
< 100	COCC(C)(C)c1noc([C@@H]2CCCN2C(=O)C[C@H](N)Cc2cc(F)c(F)cc2F)n1 [Example 24, (R)-3-Amino-1-{(S)-2-[3-(2-methoxy-1,1-dimethyl-ethyl)-[1,2,4]oxadiazol-5-yl]-pyrrolidin-1-yl}-4-(2,4,5-trifluoro-phenyl)-butan-1-one formate salt]
< 100	COCC1(c2noc([C@@H]3CCCN3C(=O)C[C@H](N)Cc3cc(F)c(F)cc3F)n2)CC1 [Example 25, (R)-3-Amino-1-{(S)-2-[3-(1-methoxymethyl-cyclopropyl)-[1,2,4]oxadiazol-5-yl]-pyrrolidin-1-yl}-4-(2,4,5-trifluoro-phenyl)-butan-1-one formate salt]
< 100	N[C@@H](CC(=O)N1CC(F)(F)C[C@H]1c1nc(C2CC2)no1)Cc1cc(F)c(F)cc1F [Example 27, (R)-3-Amino-1-[(S)-2-(3-cyclopropyl-[1,2,4]oxadiazol-5-yl)-4,4-difluoro-pyrrolidin-1-yl]-4-(2,4,5-trifluoro-phenyl)-butan-1-one formate salt]
101 to 1000	N[C@@H](CC(=O)N1CCC[C@@H]1c1nc(-c2ccccc2)no1)Cc1ccccc1F [Example 28, (R)-3-Amino-4-(2-fluoro-phenyl)-1-[(R)-2-(3-phenyl-[1,2,4]oxadiazol-5-yl)-pyrrolidin-1-yl]-butan-1-one hydrochloride]
101 to 1000	N[C@@H](CC(=O)N1CCC[C@H]1c1ncc(-c2ccccc2)[nH]1)Cc1ccccc1F [Example 41, formate salt]
101 to 1000	N[C@@H](CC(=O)N1CCC[C@H]1c1nnc(-c2ccccc2)[nH]1)Cc1ccccc1F [Example 44, formate salt]
< 100	N[C@@H](CC(=O)N1CCC[C@H]1c1nc(-c2ccccc2)co1)Cc1ccccc1F [Example 45, formate salt]
101 to 1000	N[C@@H](CC(=O)N1CCC[C@H]1c1nnc(-c2ccccc2)o1)Cc1ccccc1F [Example 46, formate salt]
< 100	CC(C)(C)n1cnc([C@@H]2CCCN2C(=O)C[C@H](N)Cc2cc(F)c(F)cc2F)n1 [Example 48]
< 100	CC(C)(C)c1noc([C@@H]2CCN2C(=O)C[C@H](N)Cc2cc(F)c(F)cc2F)n1 [Example 49, (R)-3-Amino-1-[(S)-2-(3-tert-butyl-[1,2,4]oxadiazol-5-yl)-azetidin-1-yl]-4-(2,4,5-trifluorophenyl)-butan-1-one formate salt]
